This is an account of results in patent publication US8795630B2, “Butyrylcholinesterase ligands as diagnostic tools and treatment for diseases of the nervous system” (Treventis Corporation, priority 2008, dated 2014).

In one data set the target is human recombinant AChE (Homo sapiens, UniProt P22303). The experiment in a line: Acetylcholinesterase in vitro assay (hydrolysis of ligand followed by UV/Vis repetitive scans). The class given is biochemical. The following applies: phosphate buffer pH 8.0; change of absorbance in repeated scans. Here is the method: In Examples 23-28, the interaction of the ligands with AChE was determined by measuring the rate of hydrolysis of the ligand in a buffered solution containing the enzyme. AChE stock solution consisted of 240 μg of human recombinant AChE dissolved in 1.5 mL of 0.1% aq. Gelatin. All ligands used in the assay were dissolved in a minimal amount of acetonitrile to form a ligand solution. 0.1 M Phosphate buffer PH 8.0 consisted of 1.2 g of NaH2PO4 dissolved in 100 mL of water and adjusted to the appropriate pH. The Assay was carried out by mixing 0.1 μmole of ligand solution with 5 μL of AChE stock solution and bringing the volume in a quartz cuvette of 1 cm path length to 1.5 mL with phosphate buffer. Scans using an UltraSpec 2100 Pro UV/Visible spectrophotometer over a wavelength of 200-900 nm monitored the rate of hydrolysis of the ligand by the enzyme. Change of absorbance in the spectrum indicated hydrolysis of the ligand by the enzyme.
Sequence of human recombinant AChE (P22303 32-614): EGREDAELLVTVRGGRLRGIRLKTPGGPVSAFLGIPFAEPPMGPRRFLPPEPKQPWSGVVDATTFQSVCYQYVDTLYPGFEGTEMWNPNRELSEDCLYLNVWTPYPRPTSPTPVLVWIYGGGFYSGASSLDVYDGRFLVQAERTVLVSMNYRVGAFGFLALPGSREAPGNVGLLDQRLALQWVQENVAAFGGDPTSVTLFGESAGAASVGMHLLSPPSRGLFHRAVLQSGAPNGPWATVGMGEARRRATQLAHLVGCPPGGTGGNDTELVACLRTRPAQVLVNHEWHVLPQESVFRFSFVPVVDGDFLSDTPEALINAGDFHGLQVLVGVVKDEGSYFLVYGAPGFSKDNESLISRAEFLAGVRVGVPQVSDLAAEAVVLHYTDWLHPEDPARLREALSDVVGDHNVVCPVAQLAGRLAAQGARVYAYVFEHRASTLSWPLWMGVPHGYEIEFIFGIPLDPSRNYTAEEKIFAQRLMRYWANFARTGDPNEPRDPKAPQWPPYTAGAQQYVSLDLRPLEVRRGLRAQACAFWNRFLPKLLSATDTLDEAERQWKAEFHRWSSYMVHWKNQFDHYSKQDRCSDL

Data set [1] has as its target T1, BuChE (Homo sapiens, UniProt P06276). The experiment in a line: Butyrylcholinesterase in vitro assay (hydrolysis of ligand followed by UV/Vis repetitive scans). The class given is biochemical. Particulars: phosphate buffer pH 8.0; change of absorbance in repeated scans. The method, then:
In Examples 39-54, interaction of the ligands with BuChE was determined by measuring the rate of the hydrolysis of the ligand in a buffered solution containing the enzyme. All ligands used in the assay were dissolved in a minimal amount of acetonitrile to form a ligand solution. 0.1 M Phosphate buffer PH 8.0 was prepared as to the above specifications. The Assay was carried out by mixing 0.1 μmol of ligand solution with 5 μL of BuChE stock solution and bringing the volume in a quartz cuvette of 1 cm path length to 1.5 mL with phosphate buffer. Scans using an UltraSpec 2100 Pro UV/Visible spectrophotometer over a wavelength of 200-900 nm monitored the rate of hydrolysis of the ligand by the enzyme. Change of absorbance in the spectrum indicated hydrolysis of the ligand by the enzyme. The results of these experiments generally indicate that enzymatic hydrolysis of the compounds does occur in the presence of BuChE.

In data set [2] the target is T1, BuChE. The experiment in a line: Michaelis-Menten constant and maximum reaction velocity measurement (Lineweaver-Burk plot). The class given is biochemical. Particulars: room temperature, λ=285 nm, average, N=3. The method, then:
In Example 55, Km and relative Vmax values were determined for compounds identified to be hydrolyzed by BuChE. The assay was carried out by mixing 1 uL of BuChE stock solution in 1.4 mL of phosphate buffer. Absorbance of this solution was calibrated to zero and the reaction commenced with the addition of 100 μL of a solution of ligand in 100% acetonitrile. The reactions were carried out at room temperature. The rate of change of absorbance (ΔA/min), reflecting the rate of hydrolysis of the ligand by enzyme was recorded every 3 seconds for a total of 36 seconds using a Milton-Roy uv-visible spectrophotometer set at λ=285 nm.
A Lineweaver-Burk plot was used in order to determine the Km (substrate concentration at which the reaction rate reaches half of its maximum value), and relative Vmax (maximum reaction velocity), values. Average Michealis-Menten constant and maximum reaction velocity values for a selection compounds (N=3) were measured, and the results are set forth in Table 1 below.

Data set [3] can be described thus: SPECT imaging and brain fraction radiation counts after injection of radiolabeled compound. Particulars: rat; after injection and several hours of SPECT imaging; sacrificed and perfused. It is filed as in vivo. The method, then: Shortly after the synthesis and purification detailed in Example 21, a rat was injected with the radiolabeled compound (6-oxo-1,6-dihydropyridin-2-yl)methyl-4-^123iodobenzoate and SPECT images were taken at regular time points for several hours.
After imaging, the rat was sacrificed and perfused. Radiation counts from HPLC attributable to (1,6-dihydro-6-oxopyridin-2-yl)methyl 4-^123iodobenzoate remaining in the brain fraction are shown in FIG. 4.

T1 sequence (P06276 29-602): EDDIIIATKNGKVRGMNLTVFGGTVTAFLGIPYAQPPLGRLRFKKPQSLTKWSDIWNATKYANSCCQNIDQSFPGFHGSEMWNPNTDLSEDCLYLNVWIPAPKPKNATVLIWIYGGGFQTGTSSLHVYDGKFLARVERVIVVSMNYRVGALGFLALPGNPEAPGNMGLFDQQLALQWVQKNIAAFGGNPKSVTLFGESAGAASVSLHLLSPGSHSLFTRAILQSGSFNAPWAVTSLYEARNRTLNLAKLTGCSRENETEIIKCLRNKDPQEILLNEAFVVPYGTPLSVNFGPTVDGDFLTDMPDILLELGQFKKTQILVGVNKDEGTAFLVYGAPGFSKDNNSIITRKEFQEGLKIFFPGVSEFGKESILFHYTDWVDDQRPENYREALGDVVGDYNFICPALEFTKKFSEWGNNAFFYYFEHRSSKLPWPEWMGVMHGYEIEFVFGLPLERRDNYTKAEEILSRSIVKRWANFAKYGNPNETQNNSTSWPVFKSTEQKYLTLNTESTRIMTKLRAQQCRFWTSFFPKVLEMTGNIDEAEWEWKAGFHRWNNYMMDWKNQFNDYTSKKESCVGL

Consider `CN1CCC(OC(=O)c2cccc(C#N)c2)CC1` [1′-methylpiperidin-4′-yl 3-cyanobenzoate], for which the “enzymatic hydrolysis of the compound in the presence of AChE” value (“enzymatic hydrolysis … of AChE” for short) at human recombinant AChE is given as “does not occur”. In addition, the “enzymatic hydrolysis of the compound in the presence of BuChE” value (shortened to “enzymatic hydrolysis … of BuChE”) at BuChE [1] was “does occur”.
As to `CN1CCC(OC(=O)c2cccc(I)c2)CC1` [1′-methylpiperidin-4′-yl 3-iodobenzoate], the “enzymatic hydrolysis … of AChE” value at human recombinant AChE is “does not occur”. Besides, the “enzymatic hydrolysis … of BuChE” value on BuChE [1] is “does occur”.
As to `CN1CCC(OC(=O)c2ccc(C#N)cc2)CC1` [1′-methylpiperidin-4′-yl 4-cyanobenzoate], the “enzymatic hydrolysis … of AChE” value at human recombinant AChE was “does not occur”.
Consider `CN1CCC(OC(=O)c2ccccc2)CC1` [1′-methylpiperidin-4′-yl benzoate], for which, at human recombinant AChE, the “enzymatic hydrolysis … of AChE” value is “does not occur”. Moreover, on BuChE [1], the “enzymatic hydrolysis … of BuChE” value is recorded as “does occur”.
In the case of `O=C(OCc1ccc[nH]c1=O)c1ccc(I)cc1` [Example 1, (1,2-dihydro-2-oxopyridin-3-yl)methyl 4-iodobenzoate], the “enzymatic hydrolysis … of AChE” value at human recombinant AChE is “does not occur”. Also, the “enzymatic hydrolysis … of BuChE” value on BuChE [1] was “does occur”.
For `O=C(OCc1ccc[nH]c1=O)c1ccc(F)cc1` [Example 2, (1,2-dihydro-2-oxopyridin-3-yl)methyl 4-fluorobenzoate], at human recombinant AChE, the “enzymatic hydrolysis … of AChE” value is on record as “does not occur”. The “enzymatic hydrolysis … of BuChE” value on BuChE [1] was “does occur”.
In the same order, the values of `N#Cc1ccc(C(=O)OCc2ccc[nH]c2=O)cc1` [Example 3, (1,2-dihydro-2-oxopyridin-3-yl)methyl 4-cyanobenzoate] are “does not occur” and “does occur”.
For the molecule `O=C(OCc1cccc(=O)[nH]1)c1ccc(I)cc1` [Example 4, (1,6-dihydro-6-oxopyridin-2-yl)methyl 4-iodobenzoate], the “enzymatic hydrolysis … of AChE” value on human recombinant AChE was “does not occur”. Besides, on BuChE [1], the “enzymatic hydrolysis … of BuChE” value is recorded as “does occur”. In addition, the “Vmax (relative maximum reaction velocity)” value on BuChE [2] was 9.7 ± 1.7 ΔA min^−1.
As to `O=C(OCc1cccc(=O)[nH]1)c1ccc(F)cc1` [Example 5, (1,6-dihydro-6-oxopyridin-2-yl)methyl 4-fluorobenzoate], the “enzymatic hydrolysis … of AChE” value at human recombinant AChE is reported as “does not occur”. Moreover, the “enzymatic hydrolysis … of BuChE” value on BuChE [1] is reported as “does occur”.
In the same order, the values of `N#Cc1ccc(C(=O)OCc2cccc(=O)[nH]2)cc1` [Example 6, (1,6-dihydro-6-oxopyridin-2-yl)methyl 4-cyanobenzoate] are “does not occur” and “does occur”.
As to `CN1CCC(OC(=O)c2ccc(I)cc2)CC1` [Example 7, 1′-methylpiperidin-4′-yl 4-iodobenzoate], on human recombinant AChE, the “enzymatic hydrolysis … of AChE” value is given as “does not occur”. Besides, the “enzymatic hydrolysis … of BuChE” value at BuChE [1] is on record as “does occur”. Further, at BuChE [2], the Michaelis-Menten constant (Km) was 26 ± 2 µM and the “Vmax (relative maximum reaction velocity)” value is listed as 8.4 ± 0.4 ΔA min^−1.
The like results for `CN1CCC(OC(=O)c2ccc(F)cc2)CC1` [Example 8, 1′-methylpiperidin-4′-yl 4-fluorobenzoate] were, in that order, “does not occur”, “does occur”, 753 ± 115 µM and 36 ± 6 ΔA min^−1.
In the case of `CN1CCC(OC(=O)c2ccc(C#N)cc2)CC1` [Example 9, 1′-methylpiperidin-4′-yl 4-cyanobenzoate], the “enzymatic hydrolysis … of BuChE” value on BuChE [1] is reported as “does occur”. On BuChE [2], the Michaelis constant (Km) came to 48 ± 18 µM and the “Vmax (relative maximum reaction velocity)” value was 12 ± 3 ΔA min^−1.
In the case of `CN1CCC(OC(=O)c2ccccc2)CC1` [Example 10, 1′-methylpiperidin-4′-yl benzoate], at BuChE [2], the Michaelis constant (Km) was found to be 68 ± 9 µM and the “Vmax (relative maximum reaction velocity)” value was 6.8 ± 0.5 ΔA min^−1.
`CN1CC[C@H](OC(=O)c2ccc(I)cc2)C1` [Example 14, (5)-1′-methylpyrrolidin-3′-yl 4-iodobenzoate]: at human recombinant AChE, the “enzymatic hydrolysis … of AChE” value was “does not occur”. Also, on BuChE [1], the “enzymatic hydrolysis … of BuChE” value was “does occur”. At BuChE [2], the Km came out at 16 ± 4 µM and the “Vmax (relative maximum reaction velocity)” value was 6.1 ± 0.5 ΔA min^−1.
In the same order, the values of `CN1CC[C@H](OC(=O)c2ccc(C#N)cc2)C1` [Example 15, (S)-1′-methylpyrrolidin-3′-yl-4-cyanobenzoate] are “does not occur”, “does occur”, 200 ± 52 µM and 16 ± 4 ΔA min^−1.
With `CN1CC[C@@H](OC(=O)c2ccc(I)cc2)C1` [Example 16, R-1′-methylpyrrolidin-3′-yl 4-iodobenzoate], the “enzymatic hydrolysis … of AChE” value at human recombinant AChE is “does not occur”. Besides, the “enzymatic hydrolysis … of BuChE” value at BuChE [1] is on record as “does occur”. At BuChE [2], the Km was determined as 144 ± 121 µM and the “Vmax (relative maximum reaction velocity)” value is 10 ± 9 ΔA min^−1.
The like results for `CN1CC[C@@H](OC(=O)c2ccc(C#N)cc2)C1` [Example 17, R-1′-methylpyrrolidin-3′-yl-4-cyanobenzoate] were, in that order, “does not occur”, “does occur”, 198 ± 18 µM and 30 ± 3 ΔA min^−1.
For the molecule `O=C(OCc1cccc(=O)[nH]1)c1ccc([123I])cc1` [Example 21, (6-oxo-1,6-dihydropyridin-2-yl)methyl 4-^123iodobenzoate], the “brain penetration (radiation counts in brain fraction, FIG. 4)” value in data set [3] is on record as “penetrates into the brain”.
In the case of `CCCC(=O)SCC[N+](C)(C)C` [butyrylthiocholine, reference compound], the Km at BuChE [2] was 30.6 ± 7 µM.
